# Results published in the supplement of paper PMC11451515.
# Tested on: P12-Ichikawa
# Test: cell viability relative to DMSO control; higher = less cytotoxic
# Conditions: 48 h
# In short: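 NOMO1, SEM and P12-Ichikawa leukemia cells spent at least four passages adapting to each medium before use. They were seeded at 500 cells/well (NOMO1, SEM) or 1000 cells/well (P12-Ichikawa) in 5 μl in 1536-well plates and pin-dosed with library compounds in DMSO at 11 threefold steps from 47 μM down to 0.79 nM. After 48 h at 37°C, CellTiter-Glo One luminescence was read. Viability is reported as a percentage of the DMSO wells on each plate, with cell-free wells as background.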
# [1] = HPLM + 10% dialyzed FBS, 0.000781 µM
# [2] = HPLM + 10% dialyzed FBS, 0.00234 µM
# [3] = HPLM + 10% dialyzed FBS, 0.00702 µM
# [4] = HPLM + 10% dialyzed FBS, 0.0211 µM
# [5] = HPLM + 10% dialyzed FBS, 0.0632 µM
# [6] = HPLM + 10% dialyzed FBS, 0.19 µM
# [7] = HPLM + 10% dialyzed FBS, 0.569 µM
# [8] = HPLM + 10% dialyzed FBS, 1.71 µM
# [9] = HPLM + 10% dialyzed FBS, 5.12 µM
# [10] = HPLM + 10% dialyzed FBS, 15.4 µM
# [11] = HPLM + 10% dialyzed FBS, 46.1 µM
# [12] = RPMI 5 mM glucose + 10% FBS, 0.000781 µM
# [13] = RPMI 5 mM glucose + 10% FBS, 0.00234 µM
# [14] = RPMI 5 mM glucose + 10% FBS, 0.00702 µM
# [15] = RPMI 5 mM glucose + 10% FBS, 0.0211 µM
# [16] = RPMI 5 mM glucose + 10% FBS, 0.0632 µM
# [17] = RPMI 5 mM glucose + 10% FBS, 0.19 µM
# [18] = RPMI 5 mM glucose + 10% FBS, 0.569 µM
# [19] = RPMI 5 mM glucose + 10% FBS, 1.71 µM
# [20] = RPMI 5 mM glucose + 10% FBS, 5.12 µM
# [21] = RPMI 5 mM glucose + 10% FBS, 15.4 µM
# [22] = RPMI 5 mM glucose + 10% FBS, 46.1 µM
# [23] = RPMI 5 mM glucose + 10% dialyzed FBS, 0.000781 µM
# [24] = RPMI 5 mM glucose + 10% dialyzed FBS, 0.00234 µM
# [25] = RPMI 5 mM glucose + 10% dialyzed FBS, 0.00702 µM
# [26] = RPMI 5 mM glucose + 10% dialyzed FBS, 0.0211 µM
# [27] = RPMI 5 mM glucose + 10% dialyzed FBS, 0.0632 µM
# [28] = RPMI 5 mM glucose + 10% dialyzed FBS, 0.19 µM
# [29] = RPMI 5 mM glucose + 10% dialyzed FBS, 0.569 µM
# [30] = RPMI 5 mM glucose + 10% dialyzed FBS, 1.71 µM
# [31] = RPMI 5 mM glucose + 10% dialyzed FBS, 5.12 µM
# [32] = RPMI 5 mM glucose + 10% dialyzed FBS, 15.4 µM
# [33] = RPMI 5 mM glucose + 10% dialyzed FBS, 46.1 µM
Compound,cell viability [1],cell viability [2],cell viability [3],cell viability [4],cell viability [5],cell viability [6],cell viability [7],cell viability [8],cell viability [9],cell viability [10],cell viability [11],cell viability [12],cell viability [13],cell viability [14],cell viability [15],cell viability [16],cell viability [17],cell viability [18],cell viability [19],cell viability [20],cell viability [21],cell viability [22],cell viability [23],cell viability [24],cell viability [25],cell viability [26],cell viability [27],cell viability [28],cell viability [29],cell viability [30],cell viability [31],cell viability [32],cell viability [33]
CCCCOCCOc1nc(-c2ccc(C(=O)O)c(F)c2)sc1C,119%,116%,112%,116%,119%,112%,115%,112%,107%,94.5%,110%,124%,117%,118%,120%,120%,110%,108%,100%,99.7%,86.5%,97.6%,123%,127%,124%,121%,116%,114%,118%,105%,111%,85%,113%
CC[C@H]1OC(=O)[C@H](C)C(=O)[C@H](C)[C@@H](O[C@H]2O[C@H](C)C[C@H](N(C)C)[C@H]2O)[C@](C)(OC)C[C@@H](C)C(=O)[C@H](C)[C@H]2N(CCCCn3cnc(-c4cccnc4)c3)C(=O)O[C@]12C,102%,119%,98.3%,115%,120%,116%,99.1%,98.3%,104%,96.1%,96.1%,103%,109%,111%,115%,122%,104%,88.3%,89.5%,103%,105%,96.5%,111%,122%,140%,147%,130%,82%,63.3%,89.9%,114%,92.6%,97.5%
Cc1ccnc2c1NC(=O)c1cccnc1N2C1CC1,97.4%,113%,112%,106%,112%,115%,115%,116%,105%,106%,109%,98.3%,109%,117%,108%,110%,116%,113%,115%,102%,95.2%,96.5%,93.5%,106%,99.9%,110%,108%,106%,104%,111%,97.1%,98.8%,96.8%
C=C[C@H]1CN2CCC1C[C@@H]2C(O)c1ccnc2ccc(OC)cc12 (stereo partly drawn),112%,131%,117%,119%,127%,122%,123%,133%,123%,122%,103%,,,,,,,,,,,,125%,121%,120%,128%,145%,128%,136%,133%,123%,135%,124%
O=P(O)(O)C(O)(Cn1ccnc1)P(=O)(O)O,97.2%,111%,64%,114%,111%,122%,121%,119%,125%,112%,117%,109%,122%,70.9%,126%,131%,134%,136%,137%,137%,136%,125%,101%,108%,67.8%,111%,114%,120%,116%,114%,112%,122%,118%
C[C@]12CC[C@H]3[C@@H](CCC4=CC(=O)CC[C@@H]43)[C@@H]1CC[C@@H]2OC(=O)CCc1ccccc1,116%,115%,117%,115%,113%,121%,120%,120%,121%,119%,117%,,,,,,,,,,,,104%,113%,112%,106%,115%,119%,113%,123%,112%,114%,104%
COc1ccc2c(c1)CN(C)CC2c1ccc(Cl)c(Cl)c1 (stereo not drawn),128%,121%,125%,125%,134%,133%,125%,123%,133%,131%,116%,,,,,,,,,,,,,,,,,,,,,,
CCCNC(=O)Nc1ccc(Oc2ncnc3cc(OC)c(OC)cc23)cc1Cl,88.2%,97.6%,93.4%,99.9%,98.7%,97.3%,89%,76.1%,88.1%,95.6%,84.2%,93.9%,97.3%,97.2%,99.8%,94.7%,96.3%,87.6%,82.8%,85.2%,81.3%,80.4%,98.7%,99.5%,94.8%,99.7%,92%,91.1%,91.4%,93.5%,86.8%,86.5%,75.7%
C[C@@H](CN1CC(=O)NC(=O)C1)N1CC(=O)NC(=O)C1,104%,111%,110%,109%,108%,75%,47%,11.5%,13.7%,4.45%,2.49%,101%,104%,98.5%,116%,111%,97.7%,80.7%,18.1%,18.9%,5.1%,4.44%,94.6%,108%,96.8%,110%,105%,84%,61.3%,19.7%,20%,6.43%,4.62%
